Results taken from patent US20230058623A1, “NOVEL HETEROARYL-TRIAZOLE COMPOUNDS AS PESTICIDES” (Bayer Aktiengesellschaft, priority 2019, published 2023).

Tests used:
Format in all cases: in vivo
[1] = test system: green peach aphid (Myzus persicae); assay: Myzus persicae oral test; details: 120 h, read-out: activity (mortality)
Procedure: Solvent: 100 parts by weight acetone
To produce a suitable preparation of active compound, 1 part by weight of active compound is mixed with the stated amount of solvent, and the concentrate is diluted with water to the desired concentration.
50 μL compound solution is filled in microtiter plates and 150 μL IPL41 insect medium (33%+15% sugar) is added to obtain a total volume of 200 μL per well. Afterwards the plates are sealed with parafilm through which a mixed population of the green peach aphid (Myzus persicae) can suck on the compound preparation.
After 5 days mortality in % is determined. 100% means all aphids have been killed and 0% means none of the aphids have been killed.

[2] = test system: Rhipicephalus (Boophilus) microplus larvae (strain Parkhurst, resistant against synthetic pyrethroids); assay: Rhipicephalus (Boophilus) microplus in-vitro contact test, larval cattle tick; details: after 48 hours, read-out: activity (efficacy: larvae dead or moribund); for pest or weed control at 1 µg/cm2, 100 g/ha: application rate 1 μg/cm^2 (=100 g/ha); for pest or weed control at 5 µg/cm2, 500 g/ha: application rate 5 μg/cm^2 (=500 g/ha)
Procedure: Rhipicephalus (Boophilus) microplus—In-Vitro Contact Tests Larval Cattle Tick (Strain Parkhurst, Resistant Against Synthetic Pyrethroids)
(§1) 9 mg compound is solved in 1 ml acetone and diluted with acetone to the desired concentration. 250 μL of the test solution is filled in 25 mL glass test tubes and homogeneously distributed on the inner walls by rotation and tilting on a shaking device (2 h at 30 rpm). With a compound concentration of 900 ppm, an inner surface of 44.7 cm^2 and a homogeneous distribution, a dose of 5 μg/cm^2 is achieved.
After the solvent has evaporated, each test tube is filled with 20-50 cattle tick larvae (Rhipicephalus microplus), closed with a perforated lid and incubated in a horizontal position at 85% relative humidity and 27° C. in an incubator. After 48 hours efficacy is determined. The larvae are patted on the ground of the tubes and negative geotactic behavior is recorded.
An efficacy of 100% means all larvae are dead or moribund; 0% means no larvae are dead or moribund.

[3] = test system: larvae of the banded cucumber beetle (Diabrotica balteata); assay: Diabrotica balteata spray test; details: 168 h, after 7 days, wheat seeds, read-out: activity (efficacy: seedlings grown); for pest or weed control at 32 µg/disc, 100 g/ha: application rate 100 g/ha (=32 μg/well); for pest or weed control at 160 µg/disc, 500 g/ha: application rate 500 g/ha (=160 μg/well)
Procedure: Diabrotica balteata—Spray Test
(§2) To produce a suitable preparation of active compound, 1 part by weight of active compound is mixed with the stated amount of solvent, and the concentrate is diluted with water, containing an emulsifier concentration of 1000 ppm, to the desired concentration. Further test concentrations are prepared by dilution with emulsifier containing water.
Soaked wheat seeds (Triticum aestivum) are placed in a multiple well plate filled with agar and some water and are incubated for 1 day to germinate (5 seeds per well). The germinated wheat seeds are sprayed with a test solution containing the desired concentration of the active ingredient. Afterwards each unit is infected with 10-20 larvae of the banded cucumber beetle (Diabrotica balteata).
After 7 days efficacy in % is determined. 100% means all the seedlings have grown up like in the untreated, uninfected control; 0% means none of the seedlings have grown.

[4] = test system: fall armyworm larvae (Spodoptera frugiperda); assay: Spodoptera frugiperda spray test; details: 168 h, application rate 100 g/ha, after 7 days, maize leaf sections
Procedure: Spodoptera frugiperda—Spray Test
as §2, with “solvents” for “solvent,”, “and” for “and the concentrate”
Maize (Zea mays) leaf sections are sprayed with a preparation of the active ingredient of the desired concentration. Once dry, the leaf sections are infested with fall armyworm larvae (Spodoptera frugiperda).
After 7 days mortality in % is determined. 100% means all caterpillars have been killed and 0% means none of the caterpillars have been killed.

[5] = test system: adult cat fleas (Ctenocephalides felis); assay: Ctenocephalides felis in-vitro contact test, adult cat flea; details: application rate 5 μg/cm^2 (=500 g/ha), after 48 hours, read-out: activity (efficacy: fleas dead or moribund)
Procedure: Ctenocephalides felis—In-Vitro Contact Tests Adult Cat Flea
as §1, with “mL” for “ml”
After the solvent has evaporated, each test tube is filled with 5-10 adult cat fleas (Ctenocephalides felis), closed with a perforated lid and incubated in a lying position at room temperature and relative humidity. After 48 hours efficacy is determined. The fleas are patted on the ground of the tubes and are incubated on a heating plate at 45-50° C. for at most 5 minutes. Immotile or uncoordinated moving fleas, which are not able to escape the heat by climbing upwards, are marked as dead or moribund.
An efficacy of 100% means all fleas are dead or moribund; 0% means no fleas are dead or moribund.

Structure (SMILES)	pest or weed control at 1 µg/cm2, 100 g/ha [2] [%]	pest or weed control at 5 µg/cm2, 500 g/ha [2] [%]	pest or weed control at 32 µg/disc, 100 g/ha [3] [%]	other results
C[C@H](NC(=O)c1cc(Cl)cc(S(C)(=O)=O)c1)c1ncnn1-c1ccc(C(=O)N2CCS(=O)(=O)CC2)cn1 [Example I-96]				mortality at 4 ppm [1]: 100%
C[C@H](NC(=O)c1cc(C(F)(F)F)cc(C(F)(F)F)c1)c1ncnn1-c1ccc(C(=O)NC2CC(C)(C)OC(C)(C)C2)cn1 [Example I-64]	90	80	100	
C[C@@H]1CN(C(=O)c2cnc(-n3ncnc3[C@H](C)NC(=O)c3cc(OC(F)(F)F)cc(S(C)(=O)=O)c3)cn2)C[C@H](C)O1 [Example I-142]				mortality at 100 g/ha [4]: 100%
C[C@@H]1CN(C(=O)c2ccc(-n3nc(C4CC4)nc3[C@H](C)NC(=O)c3cc(Cl)cc(S(=O)(=O)C4CC4)c3)nc2)C[C@H](C)O1 [Example I-91]			100	mortality at 100 g/ha [4]: 100%
Cc1nc([C@H](C)NC(=O)c2cc(OC(F)(F)F)cc(C3CC3)c2)n(-c2ccc(C(=O)N3CCOC[C@@H]3C)cn2)n1 [Example I-129]	100	100		pest or weed control at 5 µg/cm2 [5]: 100%
CON(C)C(=O)c1cnc(-n2nc(C)nc2[C@H](C)NC(=O)c2cc(C(F)(F)F)cc(C(F)(F)F)c2)s1 [Example I-97]	100	100	100	mortality at 4 ppm [1]: 100%
CC1CCN(C(=O)c2ccc(-n3ncnc3[C@H](C)NC(=O)c3cc(C(F)(F)F)cc(C(F)(F)F)c3)nc2)CC1 [Example I-73]	100	100	100	
C[C@H](NC(=O)c1cc(C(F)(F)F)cc(C(F)(F)F)c1)c1ncnn1-c1ccc(N2CCOCC2)cn1 [Example I-44, N-[(1S)-1-{1-[5-(morpholin-4-yl)pyridin-2-yl]-1H-1,2,4-triazol-5-yl}ethyl]-3,5-bis(trifluoromethyl)benzamide]	100	100	100	mortality at 100 g/ha [4]: 100%
C[C@@H]1CN(C(=O)c2cnc(-n3ncnc3[C@H](C)NC(=O)c3cc(C(F)(F)F)cc(C(F)(F)F)c3)nc2)C[C@H](C)O1 [Example I-146]			100	mortality at 100 g/ha [4]: 100%
C[C@H](NC(=O)c1cc(C(F)(F)F)cc(C(F)(F)F)c1)c1ncnn1-c1ccc(S(=O)(=O)N2CCOCC2)cn1 [Example I-127, N-[(1S)-1-{1-[5-(morpholin-4-ylsulfonyl)pyridin-2-yl]-1H-1,2,4-triazol-5-yl}ethyl]-3,5-bis(trifluoromethyl)benzamide]	100	100		
C[C@H](NC(=O)c1cc(C(F)(F)F)cc(C(F)(F)F)c1)c1ncnn1-c1ccc(C(=O)NC2CCSCC2)cn1 [Example I-113]	100	100		mortality at 4 ppm [1]: 100%
Cc1nc([C@H](C)NC(=O)c2cc(C(F)(F)F)cc(C(F)(F)F)c2)n(-c2ccc(C(=O)N3CCC(C)CC3)cn2)n1 [Example I-74]	90	90	100	
Cc1nc([C@H](C)NC(=O)c2cc(OC(F)(F)F)cc(C3CC3)c2)n(-c2ncc(C(=O)N3CCOCC3)s2)n1 [Example I-137]				mortality at 100 g/ha [4]: 100%
C[C@H](NC(=O)c1cc(C(F)(F)F)cc(C(F)(F)F)c1)c1ncnn1-c1ccc(N2CCOCC2=O)cn1 [Example I-128, N-[(1S)-1-{1-[5-(3-oxomorpholin-4-yl)pyridin-2-yl]-1H-1,2,4-triazol-5-yl}ethyl]-3,5-bis(trifluoromethyl)benzamide]	100	100		mortality at 4 ppm [1]: 100%
Cc1nc([C@H](C)NC(=O)c2cc(Cl)cc(C(F)(F)F)c2)n(-c2ccc(C(=O)N3CC(O)C3)cn2)n1 [Example I-21]				mortality at 4 ppm [1]: 100%
C[C@H](NC(=O)c1cc(C(F)(F)F)cc(C(F)(F)F)c1)c1ncnn1-c1cnc(C(=O)N2CCCC2)cn1 [Example I-144]			100	mortality at 100 g/ha [4]: 100%
CC(NC(=O)c1cc(Br)cc(Br)c1)c1nc(Br)nn1-c1ccc(C(=O)N2CCOCC2)cn1 (stereo not drawn) [Example I-85]	100	100		
C[C@H](NC(=O)c1cc(OC(F)(F)F)cc(C2CC2)c1)c1ncnn1-c1ccc(S(=O)(=O)N2CCOCC2)cn1 [Example I-125]	100	100	100	pest or weed control at 160 µg/disc, 500 g/ha [3]: 100%
C[C@H](NC(=O)c1cc(Cl)cc(S(C)(=O)=O)c1)c1ncnn1-c1ccc(C(=O)N2CCOCC2)cn1 [Example I-119]				mortality at 4 ppm [1]: 100%
C[C@H](NC(=O)c1cc(Cl)cc(C(F)(F)F)c1)c1ncnn1-c1ccc(S(=O)(=O)N2CCOCC2)cn1 [Example I-123]	100	100	80	
C[C@H](NC(=O)c1cc(Cl)cc(S(=O)(=O)C(F)(F)F)c1)c1ncnn1-c1ccc(N2CCOCC2)cn1 [Example I-105]	100	100	100	mortality at 100 g/ha [4]: 83%
C[C@H](NC(=O)c1cc(Cl)cc(C(F)(F)F)c1)c1ncnn1-c1ccc(N2CCCCC2=O)cn1 [Example I-57]				mortality at 4 ppm [1]: 90%
C[C@H](NC(=O)c1cc(Cl)cc(C(F)(F)F)c1)c1ncnn1-c1ccc(C(=O)N2[C@@H](C)CCC[C@@H]2C)cn1 [Example I-39]				pest or weed control at 160 µg/disc, 500 g/ha [3]: 100%
C[C@H](NC(=O)c1cc(Br)cc(Br)c1)c1ncnn1-c1ccc(N2CCOCC2)cn1 [Example I-103]	90	100	100	
Cc1nc([C@H](C)NC(=O)c2cc(C(F)(F)F)cc(C(F)(F)F)c2)n(-c2ccc(C(=O)N3CCOCC3c3ccnn3C)cn2)n1 (stereo partly drawn) [Example I-101]	80	80		pest or weed control at 5 µg/cm2 [5]: 80%; mortality at 100 g/ha [4]: 100%
C[C@H](NC(=O)c1cc(C(F)(F)F)cc(C(F)(F)F)c1)c1ncnn1-c1ccc(C(=O)NC2CCOCC2)cn1 [Example I-111]	100	100		mortality at 4 ppm [1]: 90%
CC(NC(=O)c1cc(F)cc(C#N)c1)c1nc(C(F)F)nn1-c1ccc(C(=O)N2CCOCC2)cn1 (stereo not drawn) [Example I-60]			100	pest or weed control at 160 µg/disc, 500 g/ha [3]: 100%
